Reference: patent US9155301B2, “Antimicrobial agent comprising a cysteine component covalently bound to a substrate in particular by binding through an S-S bridge via a spacer molecule” (priority 2005, dated 2015)

Tested on: Staphylococcus aureus (B5381, a clinical isolate)
Experiment: Inhibition of bacterial growth in culture incubated with modified surface
Type: cell-based
Details: Example 11; dissolved in culture at 50 μg/ml and 5 μg/ml; initial culture exceeding 4 million cfu/ml
Description: The following analysis was performed with three (3) different strains of bacteria, but the applications are not limited to these: A clinical isolate (from a patient with sepsis) of Gram positive bacterium Staphylococcus aureus, (a clinical isolate B5381), the Gram positive bacterium Bacillus megaterium (strain Bm11), the Gram negative bacterium Escherichia coli (strain D21). This selection of bacteria comprises both Gram positive and Gram negative bacteria including bacteria that are of significant problems clinically.
[…] LB medium (Luria Bertani broth) has been inoculated with specific bacterial strain, but not limited to this medium. The strain selected has been plated on an agar plate of selected medium the day before, and permitted to grow over night at 37° C. Several colonies were scraped from the plate and used to inoculate the medium which subsequently was allowed to grow up to an optical density of 0.4. […] The number of bacteria was determined by plating serial dilutions and counting colonies in the appropriate dilutions. […]
Subsequent to incubation (in the presently described case: 2.5 h), the disc was removed from each tube using a sterile pair of tweezers. The culture in which the disc had been incubated was in parallel transferred to a separate sterile eppendorf tube, and its titer was determined as described. […]

With `N[C@@H](CS)C(=O)O` [dissolved L-cysteine, L-cysteine] the “inhibition of growth in culture with dissolved substance” value was “No inhibition”.
